These results are taken from PMC10541198, “Specific quinone reductase 2 inhibitors reduce metabolic burden and reverse Alzheimer’s disease phenotype in mice” (The Journal of Clinical Investigation, 2023).

Where “and” joins values, the source holds several entries; their conditions need not be identical. Identical values can stand only once.

In the assay the test system is C57BL/6 mice. Put plainly: Delay fear conditioning, microinjection to hippocampal CA1. It counts as in vivo, mouse. Here is the method:
In order to evaluate the efficacy of some of the leading QR2is in vivo, we carried out double-blind experiments using 2 different modalities (Supplemental Methods), measuring memory that is dependent on different brain areas. First, cortical memory was tested using incidental novel taste learning (see Methods), in which an unfamiliar, but palatable and safe, taste is given for the first time, and the memory for this newly learned taste is then assessed 2 days later. This is done by measuring the volume of the taste consumed upon subsequent exposure to it ([32]) (Figure 4A). […] Next, hippocampal-dependent learning was evaluated using delay fear conditioning (DFC; see Methods) ([33]). Mice were cannulated to the CA1 region of the hippocampus and were microinjected with YB-537 (1 μL of 5 μM, Figure 4, D and H) or vehicle. […] In order to evaluate any possible effect of acute QR2i microinjection on metabolic stress in the mouse brain, ISR activation was measured by quantifying total and phosphorylated eukaryotic initiation factor 2 α (eIF2α) levels (Supplemental Figure 3A) and lipid peroxidation product, 4-hydroxynonenal (4-HNE; Supplemental Figure 3B), by immunoblot 3 hours after the injection.
DFC was done as previously described ([7]). Briefly, mice were given 2 minutes to explore the conditioning chambers, during which baseline freezing was measured. Then, a 20 second, 4 kHz, 80 dB tone was given, coterminating with the start of a 2 second, 0.5 mA foot-shock. This was repeated twice more in 1 minute intervals. Following the third and last bout, 1 minute was given before the animals were removed from the chambers. The next day, the animals were returned to the room under the same conditions and were placed back into the chambers, and freezing to the context was measured over the course of 5 minutes. The next day, the mice were brought to unfamiliar conditioning rooms and chambers. In this unfamiliar context, the protocol from the first day was repeated, except without the foot shocks. Freezing for the cue was recorded, starting from the sounding of the first tone. All measurements were taken with a Sentec stc-tb33usb-at camera, and analysis was done with Freeze Frame software (Actimetrics). […]
Mice were anesthetized under 2% isoflurane, using an induction box (HME109, Highland Medical Equipment). They were placed in a stereotaxic device (Kopf Stereotaxic Alignment System, model 1900) under continuous 1% isoflurane anesthesia. Guide cannulas were implanted bilaterally to CA1 (from bregma: −1.9 mm AP, ±1.4 mm, −1.6 mm DV), cemented to the skull and fitted with 28- gauge dummy cannulas e xt e ndi ng 0.2 mm beyond the tip of the 1.2 mm guide cannulas. The mice were allowed at least 7 days of r ecover y before e xpe r im e nt at ion. The QR2 inhibitor YB-537 was dissolved in saline (0.9%). A total of 1μL of 5μM of YB-537 or vehicle was infused bilaterally to CA1, via a 28- gauge infusion cannula projecting 0.4 mm (drug delivery depth bregma: […]) beyond the guide cannula, connected by polyethylene tubing to a 10μL s yr i nge (Hamilton) ove r the course of 1m i n. The injection cannula was […]
kept for 60s inside the guide cannula in order prevent osmotic seepage of the doses upward through the cannula tract. Twenty minutes following the injection, animals underwent delay fear conditioning.
Following experimentation, animals were killed, brains were sliced in coronal sections, and cannula implantation was validated by imaging.
Incidental Tast e Learning […]
neophobia is highly conserved across species, as it is the fi rst line of defense against potentially poisonous, newly discovered foodstuffs.
However, once a memory for the taste is formed and no associated ill effect is learned, the taste becomes familiar and the animal consumes it more freely, especially if it is a pleasant, palatable taste. Thus, the stronger the memory for the safe, palatable taste, the more likely the animal will consume it(32, 56). […]

Where [1] appears, read: 5 μM to CA1, in % (unit assumed).

As for `Cc1ccc(-c2cn3cccc(C)c3n2)cc1S(=O)(=O)N1CCNCC1` [YB-537], the “inter-trial learning during conditioning” value (5 μM to CA1, n=6) was “normal inter-trial learning”. Further, the “freezing during conditioning (individual mice)” value by setting is: (5 μM to CA1, Baseline, in % (unit assumed)) 2.45 and 0.22 and 3.23 and 4.78 and 9.01 and 1.89; (5 μM to CA1, CS/US 1, in % (unit assumed)) 13.08 and 8.81 and 18.16 and 10.01 and 26.70 and 2.54; (5 μM to CA1, CS/US 2, in % (unit assumed)) 20.03 and 15.78 and 28.12 and 17.97 and 27.02 and 2.19; (5 μM to CA1, CS/US 3, in % (unit assumed)) 24.88 and 20.00 and 35.58 and 21.40 and 33.02 and 2.33. For the same molecule, the “freezing in response to the context (individual mice)” value under setting [1] was 59.92 and 49.69 and 57.37 and 25.70 and 41.84 and 33.92. Further, the “freezing in response to the cue (individual mice)” value under setting [1] is 51.89 and 48.39 and 35.02 and 23.60 and 5.68 and 24.28.
